The values that follow come from patent publication US20250049776A1, “AUTOPHAGY INDUCING COMPOUNDS AND USES THEREOF, IN PARTICULAR FOR A SYSTEMIC TREATMENT OF DISEASES AND CONDITIONS” (Samsara Therapeutics Inc., priority 2021, published 2025).

Test [1] concerns Human osteosarcoma U20S cells. The experiment in a line: Assay to measure lysosome and autolysosome formation (acidic vesicle formation, LysoView/LysoTracker staining). The conditions noted are these: for activation at 0.8 µM: Homo sapiens, U2OS cells, concentration of 0.8 μM, read-out: Activity (percentage increase in acidic vesicle formation over the DMSO-treated control), Table 2; for acidic vesicle formation relative to a DMSO-treated control / increase in acidic vesicle formation: U20S cells; for acidic vesicle formation relative to a DMSO-treated control: concentration of 10 μM, 24 hours; for increase in acidic vesicle formation: relative to DMSO-treated control (10 μM). The test is classed as cell-based. The method in brief: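 U2OS cells treated with compounds in DMSO for 24 h, then stained 45 min at 37 °C with 1× LysoView 633 or 50 nM LysoTracker Deep Red, with Hoechst nuclear counterstain. Live-cell fluorescence imaging at 37 °C; acidic vesicle formation judged against DMSO-treated control.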

The subject of test [2] is U2OS cell line stabling expressing RFP-eGFP-hLC3b. Briefly: Tandem reporter assay (autophagic flux, RFP-only puncta). The test is classed as cell-based. The conditions noted are these: Homo sapiens, RFP-only puncta as percentage of DMSO-treated control, 24 hours; for activity at 1 µM: read-out: Autolysosome % DMSO activity (compound concentration of 1 μM); for activity at 10 µM: read-out: Autolysosome % DMSO activity (compound concentration of 10 μM). The procedure: Selected compounds of this invention were also assessed for their ability to stimulate autophagy using a U20S cell line stabling expressing RFP-eGFP-hLC3b (a tandem reporter cell line). During the process of autophagy, the cargo to be degraded is first enveloped by organelles called autophagosomes. These autophagosomes then fuse with lysosomes, causing them to become acidified and their digestive enzymes to become activated. The term “autophagic flux” is used to represent the dynamic process of autophagy: autophagic flux refers to the whole process of autophagy, including autophagosome formation, maturation, fusion with lysosomes, subsequent breakdown and the release of macromolecules back into the cytosol (Zhang X J, Chen S, Huang K X, Le W D. Why should autophagic flux be assessed? Acta Pharmacol Sin. 2013 May; 34(5): 595-9. doi: 10.1038/aps.2012.184. Epub 2013 Mar. 11). Compounds that stimulate autophagic flux stimulate the dynamic process of autophagy (the whole process of autophagy).
LC3b is a protein found in the membrane of autophagosomes which has been used to generate genetic reporters of autophagy in cells. In these systems a tandem fusion of LC3b is engineered with two fluorescent proteins of different wavelengths: one which is acid sensitive (for example eGFP, which fluoresces green) and the other which is acid insensitive (for example RFP, which fluoresces red). Cells expressing RFP-eGFP-hLC3b can be examined using fluorescent microscopy: the autophagosomes present will fluoresce in both channels (either yellow in an overlay of both channels or puncta that are present in both the individual red and green channels) but the autolysosomes present will fluoresce in the RFP (red) channel only. Using a fluorescent microscope, the number of autophagosomes and autolysosomes can be counted, allowing for the monitoring of both the induction of autophagy (total puncta count) and the rate of autophagic flux (ratio of red-only to red-and-green puncta). The influence of small molecules on autophagy induction and flux can be assessed using this system by comparison to a non-treated control.
Representative Procedure: Human osteosarcoma U2OS cells stably expressing RFP-eGFP-hLC3b were seeded (10,000 cells/well) into a 96-well glass-bottom plate (Cell Carrier Ultra, Perkin Elmer) in DMEM Glutamax media (Gibco) supplemented with 10% Fetal Bovine Serum (FBS) and antibiotics (100 u/ml penicillin, 100 μg/ml streptomycin, Invitrogen), then incubated overnight in a humified atmosphere at 37° C. and 5% CO2. The cells were then treated with the compounds of interest, dissolved in DMSO, in a duplicated 5- or 10-point dose-response. 8 wells were treated with an equivalent volume of DMSO, 4 with 0.3 μM torin-1 as a positive control (MCE) and 4 wells with 0.4 μM torin-1 plus 0.2 μM bafilomycin (MCE) as a control for flux inhibition. The cells were returned to the incubator and the treatment continued for 24 hours. After treatment, the media was aspirated off and the cells fixed with a solution of 4% formaldehyde+1% glutaraldehyde (Sigma) in dPBS (plus magnesium and calcium, Gibco).
Fixation was allowed to proceed for 15 minutes at room temperature then the fixative solution discarded and replaced with PBS (Gibco) plus Hoescht 33342 ([…], Sigma). After 30 minutes the plates were imaged on an Opera Phenix confocal microscope (Perkin-Elmer) using a 40× water objective, collecting using DAPI, mCherry and GFP channels. Cells were detected based upon the staining of their nuclei with DAPI using the Harmony image analysis software (Perkin-Elmer) and the number of autophagosomes (GFP and RFP puncta) and autolysosomes (RFP only puncta) per cell were counted using the spot picking function within the software.

Structures can show the parent of a compound that is named as a salt. Where only a bound is given, the exact number is not on record here.

Regarding `CCCN(C(=O)c1csc(-c2cnn(-c3ccccc3)c2)n1)[C@H]1CCNC1` [Compound 170, (S)-2-(1-phenyl-1H-pyrazol-4-yl)-N-propyl-N-(pyrrolidin-3-yl)thiazole-4-carboxamide hydrochloride], in test [1], the activation at 0.8 µM lay in the range of 10 to 30%.
On to `O=C(NCC1CCNCC1)c1csc(-c2cnn(-c3ccccc3)c2)n1` [Compound 177, 2-(1-phenyl-1H-pyrazol-4-yl)-N-[(piperidin-4-yl)methyl]-1,3-thiazole-4-carboxamide], for which the activation at 0.8 µM in test [1] lay in the range of 10 to 30%.
Same read-out and setting: the value for `O=C(NCC1CCNC1)c1csc(-c2cnn(-c3ccccc3)c2)n1` (centres unmarked) [Compound 179, 2-(1-phenyl-1H-pyrazol-4-yl)-N-[(pyrrolidin-3-yl)methyl]-1,3-thiazole-4-carboxamide] was 30 to 50%; that for `O=C(NC1CNC1)c1csc(-c2cnn(-c3ccccc3)c2)n1` [Compound 180, N-(azetidin-3-yl)-2-(1-phenyl-1H-pyrazol-4-yl)-1,3-thiazole-4-carboxamide] was 30 to 50%.
Same read-out and setting: the value for `CC(C)N(C(=O)c1csc(-c2cnn(-c3ccccn3)c2)n1)C1CCNCC1` [Compound 307, N-(piperidin-4-yl)-N-(propan-2-yl)-2-[1-(pyridin-2-yl)-1H-pyrazol-4-yl]-1,3-thiazole-4-carboxamide] was 50 to 100%; that for `CC(C)N(C(=O)c1csc(-c2cnn(-c3ccccc3)c2)n1)[C@@H]1CCNC1` [Compound 312, 2-(1-phenyl-1H-pyrazol-4-yl)-N-(propan-2-yl)-N-[(3R)-pyrrolidin-3-yl]-1,3-thiazole-4-carboxamide] was 50 to 100%; that for `CC(C)N(C(=O)c1csc(-c2cnn(-c3ccccc3)c2)n1)C1C[C@H]2C[C@@H]1CN2` (stereo partly drawn) [Compound 316, N-[(1R,4R)-2-azabicyclo[2.2.1]heptan-5-yl]-2-(1-phenyl-1H-pyrazol-4-yl)-N-(propan-2-yl)-1,3-thiazole-4-carboxamide] was 30 to 50%.
As for `CC(C)N(C(=O)c1csc(-c2cnn(-c3ccccc3)c2)n1)C1C2CNCC1C2` (centres unmarked) [Compound 317, N-{3-azabicyclo[3.1.1]heptan-6-yl}-2-(1-phenyl-1H-pyrazol-4-yl)-N-(propan-2-yl)-1,3-thiazole-4-carboxamide], in test [1], the “acidic vesicle formation relative to a DMSO-treated control” value is “only a slight increase” and the “increase in acidic vesicle formation” value is recorded as “only a slight increase”.
In the case of `CC(C)N(C(=O)c1csc(-c2cnn(-c3ccccc3)c2)n1)[C@H]1[C@@H]2CNC[C@@H]21` [Compound 318, N-[(1R,5S,6S)-3-azabicyclo[3.1.0]hexan-6-yl]-2-(1-phenyl-1H-pyrazol-4-yl)-N-(propan-2-yl)-1,3-thiazole-4-carboxamide], the activation at 0.8 µM in test [1] is over 100%.
With `CC(C)N(C(=O)c1csc(-c2cnn(-c3cccnc3)c2)n1)C1CCNCC1` [Compound 321, N-(piperidin-4-yl)-N-(propan-2-yl)-2-[1-(pyridin-3-yl)-1H-pyrazol-4-yl]-1,3-thiazole-4-carboxamide], in test [1], the activation at 0.8 µM is 30 to 50% and the “increase in acidic vesicle formation” value is on record as “only a slight increase”.
`CC(C)N(C(=O)c1csc(-c2cnn(-c3ccncc3)c2)n1)C1CCNCC1` [Compound 322, N-(piperidin-4-yl)-N-(propan-2-yl)-2-[1-(pyridin-4-yl)-1H-pyrazol-4-yl]-1,3-thiazole-4-carboxamide]: in test [1], the “acidic vesicle formation relative to a DMSO-treated control” value is “only a slight increase” and the “increase in acidic vesicle formation” value is “only a slight increase”.
In the case of `CC(C)N(C(=O)c1csc(-c2cnn(-c3cccnn3)c2)n1)C1CCNCC1` [Compound 323, N-(piperidin-4-yl)-N-(propan-2-yl)-2-[1-(pyridazin-3-yl)-1H-pyrazol-4-yl]-1,3-thiazole-4-carboxamide], in test [1], the activation at 0.8 µM was in the range of 30 to 50% and the “increase in acidic vesicle formation” value is on record as “only a slight increase”.
As to `O=C(c1csc(-c2cnn(-c3ccccc3)c2)n1)N1C[C@H]2C[C@@H]1CN2` [Compound 326, (1R,4R)-2-[2-(1-phenyl-1H-pyrazol-4-yl)-1,3-thiazole-4-carbonyl]-2,5-diazabicyclo[2.2.1]heptane], the activation at 0.8 µM in test [1] lay in the range of 50 to 100%.
Consider `O=C(NC1C[C@@H]2C[C@H]1CN2)c1csc(-c2cnn(-c3ccccc3)c2)n1` (stereo partly drawn) [Compound 327, N-[(1S,4S)-2-azabicyclo[2.2.1]heptan-5-yl]-2-(1-phenyl-1H-pyrazol-4-yl)-1,3-thiazole-4-carboxamide], for which, in test [1], the activation at 0.8 µM is 30 to 50%.
Turning to `CC(C)N(C(=O)c1csc(-c2cnn(-c3ncccn3)c2)n1)C1CCNCC1` [Compound 329, N-(piperidin-4-yl)-N-(propan-2-yl)-2-[1-(pyrimidin-2-yl)-1H-pyrazol-4-yl]-1,3-thiazole-4-carboxamide], the “increase in acidic vesicle formation” value in test [1] was “only a slight increase”.
With `CC(C)N(C(=O)c1csc(-c2cnn(-c3cccnn3)c2)n1)[C@@H]1CCNC1` [Compound 332, N-(propan-2-yl)-2-[1-(pyridazin-3-yl)-1H-pyrazol-4-yl]-N-[(3R)-pyrrolidin-3-yl]-1,3-thiazole-4-carboxamide], in test [1], the “acidic vesicle formation relative to a DMSO-treated control” value is listed as “only a slight increase” and the “increase in acidic vesicle formation” value is “only a slight increase”.
With `CC(C)N(C(=O)c1cc(-c2cnn(-c3ccccc3)c2)c[nH]1)[C@@H]1CCNC1` [Compound 334, 4-(1-phenyl-1H-pyrazol-4-yl)-N-(propan-2-yl)-N-[(3R)-pyrrolidin-3-yl]-1H-pyrrole-2-carboxamide], in test [1], the activation at 0.8 µM lay within 30 to 50% and the “increase in acidic vesicle formation” value is “only a slight increase”.
Consider `CC(C)N(C(=O)c1nc(-c2cnn(-c3ccccc3)c2)c[nH]1)[C@@H]1CCNC1` [Compound 345, 5-(1-phenyl-1H-pyrazol-4-yl)-N-(propan-2-yl)-N-[(3R)-pyrrolidin-3-yl]-1H-imidazole-2-carboxamide], for which, in test [2], the activity at 1 µM was found to be 116% and the activity at 10 µM is 72%.
Take `CN(C(=O)c1cnc(-c2cnn(-c3ccccc3)c2)[nH]1)[C@H]1CCNC1` [Compound 358, N-methyl-2-(1-phenyl-1H-pyrazol-4-yl)-N-[(3S)-pyrrolidin-3-yl]-1H-imidazole-4-carboxamide]: in test [2], the activity at 1 µM amounted to 102% and the activity at 10 µM turned out to be 103%.
For `CN(C(=O)c1nc(-c2cnn(-c3ccccc3)c2)c[nH]1)[C@H]1CCNC1` [Compound 359, N-methyl-5-(1-phenyl-1H-pyrazol-4-yl)-N-[(3S)-pyrrolidin-3-yl]-1H-imidazole-2-carboxamide] the same measures were 113% and 144%.
Take `CN(C(=O)c1coc(-c2cnn(-c3ccccc3)c2)n1)[C@H]1CCNC1` [Compound 360, N-methyl-2-(1-phenyl-1H-pyrazol-4-yl)-N-[(3S)-pyrrolidin-3-yl]-1,3-oxazole-4-carboxamide]: in test [2], the activity at 1 µM turned out to be 113% and the activity at 10 µM is 214%.
For the molecule `CN(C(=O)c1csc(-c2cnn(-c3ccccc3)n2)n1)[C@@H]1CCNC1` [Compound 363, N-methyl-2-(2-phenyl-2H-1,2,3-triazol-4-yl)-N-[(3R)-pyrrolidin-3-yl]-1,3-thiazole-4-carboxamide], in test [2], the activity at 1 µM came out at 171%.
